# Results as given in patent US20170044230A1 (USTAV ORGANICKE CHEMIE A BIOCHEMIE AV CR, V.V.I., priority 2014, published 2017).
# “Also recorded” adds a separate entry of the source. Non-standard residues stand in square brackets, D forms with d. Residues, ends and D or L forms follow the SMILES beside them. *: point of attachment. 1Nal = N[C@@H](Cc1cccc2ccccc12)C(=O)O; Myristoyl = CCCCCCCCCCCCCC(=O)*; Dap = NC[C@H](N)C(=O)O; Sar = CNCC(=O)O
# Tests used:
# human GHS-R1a receptor = target: T1, human GHS-R1a receptor (Homo sapiens, UniProt Q92847); assay: Competitive binding studies (displacement of 125I-ghrelin); conditions: relative to ghrelin = 100
# T1 construct: purchased Multispan, Hayward, Calif., USA; host or cells: HEK293T cells, isolated plasma membranes
# Description: Isolated plasma membranes from the HEK293T cells with transfected human GHS-R1a receptor (Multispan, Hayward, Calif., USA) were used. […] Experiments were carried out in duplicates at least three times. Competitive binding curves were plotted using GraphPad Prism Software (San Diego, Calif., USA) while comparing the best fit for single binding sites models.
# [1] = test system: rat model of subtotal nephrectomy; assay: Rat model of renal cachexia (subtotal nephrectomy, SNx); type: in vivo
# Description: Male F344 rats (Harlan, Italy) were housed at a temperature of 22±2° C. under a daily cycle of 12/12 h light/dark (light from 6:00) with free access to water and a standard chow diet St-1 (Mlýn Kocanda, Praha, Czech Republic).
# To induce renal dysfunction, 5/6 nephrectomy was performed to anesthetized 8-week-old rats (SNx group, n=14); the control group was sham-operated (Sham group, n=6). Starting from the following day, the rats were SC injected with saline or ghrelin analog no. 2 (5 mg/kg of body weight, dissolved in saline) for 15 days. Food intake and body weight of the rats was monitored every day. At the end of the experiment, blood was collected for determination of pro-inflammatory cytokines using the Milliplex MAP Rat Cytokine/Chemokine Magnetic Bead Panel (Merck-Millipore, St. Charles, Mo., USA).
# fed C57BL/6 male mice = assay: Effect of SC administered ghrelin analogs on food intake; type: in vivo; conditions: for maximal effect at 5 mg/kg on food intake: SC 5 mg/kg, evaluated 480 min after administration; for ED50 (250 min after injection), effect on food intake: SC
# Description: All of the experiments followed the ethical guidelines for animal experiments and Czech Republic law 246/1992 and were approved by the committee for experiments with laboratory animals of the Academy of Sciences of the Czech Republic. Male C57BL/6 mice (Charles River, Germany) were housed at a temperature 22±2° C. under a daily cycle of 12/12 h light/dark (light from 6:00) with free access to water and a standard chow diet St-1 which contained […] of calories from protein, fat and carbohydrate, respectively, and its energy content was 3.4 kcal/g (Mlýn Kocanda, Praha, Czech Republic). Mice were placed into separate cages for one week before experiment, they had free access to water and food pellets. Closely before the experiment, the food pellets were removed from the cages. […] 15 min after the injection, mice were given preweighed food pellets. Food intake was monitored for 8-10 hours at 30-min intervals. Mice had free access to water during the experiment. Experiments were performed at least twice for each tested compound, each experimental group had at least 5 mice.
# Data from food intake experiments were analyzed by one-way ANOVA followed by Dunnett's post-hoc test using GraphPad Prism Software (San Diego, Calif., USA), P<0.05 was considered statistically significant. ED50 values were calculated using GraphPad Prism Software as the dose of the tested compound required to elicit half-maximal effect at 250 min after administration of the corresponding compound.
# Food intake was monitored for […] after administration of the compounds. ED50 values were determined 250 min after administration. Maximal effect on food intake was evaluated […] after administration of the compounds at a dose of 5 mg/kg of body weight. NT—not tested.
# [2] = test system: rat model of aortic stenosis-induced cachexia; assay: Rat model of aortic stenosis-induced cachexia; type: in vivo; conditions: 28-day continuous IP infusion
# Description: Cachexia induced through the aortic stenosis (AS) was made in male Wistar rats, aged 8-9 months (Harlan, Italy). Rats were housed at a temperature of 22±2° C. under a daily cycle of 12/12 h light/dark (light from 6:00) with free access to water and a standard chow diet (Altromin, Germany).
# The animals were anesthetized with isoflurane and the aortic stenosis was induced via abdominal incision. […] A steel wire (diameter 0.4 mm) was placed alongside the isolated aorta, both were gently tightened with a stitch (3-0 silk tread), and the wire was removed accordingly. […] Finally, the abdomen was sutured and the animals were kept in standard conditions with free access to regular rat chow and water ad libitum. The Sham group consisted of sham-operated rats prepared by a similar surgical treatment without aortic stenosis.
# Mortality was about 5% within 72 h after stenosis. All animal experiments were approved by the Institutional Animal Experimental Ethics Committee of the Institute of Physiology AS CR. […] 2 dissolved in vehicle (2.5 mg/kg of body weight per day) for 28 days (n=5). Food intake and body weight of the rats was monitored every day.
# [3] = test system: mouse model of lipopolysaccharide-induced cachexia; assay: Mouse model of lipopolysaccharide-induced cachexia (LPS model); type: in vivo, mice
# Description: Male C57BL/6 mice (Charles River, Germany) were housed at a temperature of 22±2° C. under a daily cycle of 12/12 h light/dark (light from 6:00) with free access to water and a standard chow diet St-1 (Mlýn Kocanda, Praha, Czech Republic). One week before the experiment, the mice were placed into separated cages and habituated to an automatic system for food intake monitoring (Developmental workshop IOCB, Prague, Czech Republic). Animals were randomized into two groups, LPS group and control group. At 17:00, the LPS group was injected intraperitoneally (IP) with 100 μg/kg of body weight LPS (Escherichia coli 055:B5 serotype, Sigma) in a volume of 0.2 ml saline. The control group received an IP injection with an equal volume of saline. Food intake was monitored automatically in 10-min intervals. […] 14 (n=4-5 mice per group). Food intake was monitored for another 10 hours.
# At the end of the experiment, mice were sacrificed by decapitation, blood was collected, plasma was prepared and stored at −20° C. Hypothalamus was dissected, frozen on dry ice and stored at −80° C., musculus gastrocnemius was dissected, flash-frozen in liquid nitrogen and stored at -80° C. C-reactive protein levels and pro-inflammatory/anti-inflammatory cytokine levels in blood plasma were determined using C-Reactive Protein Mouse ELISA (Biovendor, Bmo, Czech Republic) and Milliplex MAP Rat Cytokine/Chemokine Magnetic Bead Panel (Merck-Millipore, St. Charles, Mo., USA), respectively. Samples of hypothalamus and muscle were homogenized, total RNA was extracted and RNA concentration was determined as previously described (Holubova et al., 2014). Determination of the mRNA expression of genes of interest (MuRFI and MAFbx in muscle, NPY and AgRP in hypothalamus) was performed using an ABI PRISM 7500 instrument (Applied Biosystems, Foster City, Calif., USA). The expression of GAPDH or GUSH was used to compensate for variations in input RNA amounts and the efficiency of reverse transcription, and the modified formula 2-ΔCt was used to calculate the relative gene expression.
# [4] = test system: 4-5-week old male C57BL/6 mice; assay: Growth hormone (GH) release after SC administration to young mice; type: in vivo; conditions: 10 min after SC 5 mg/kg
# Description: 4 and 14 at a dose of 5 mg/kg of body weight (0.2 ml/mouse). 10 min after the injection, blood was collected, plasma was prepared and stored at −20° C. until use. GH levels in the plasma samples were determined by Rat/Mouse Growth Hormone ELISA kit (Merck-Millipore, St. Charles, Mo., USA). Ghrelin analogs no.
# [5] = Pharmacokinetics in vivo after SC administration to mice; conditions: SC 5 mg/kg
# Description: Mice were housed at a temperature 22±2° C. under a daily cycle of 12/12 h light/dark (light from 6:00) with free access to water and a standard chow diet St-1 (Mlýn Kocanda, Praha, Czech Republic).
# 4, 6, 14 and 18 at a dose of 5 mg/kg of body weight (0.2 ml/mouse, n=4). Blood was collected from tails before injection and 0.5, 1, 2, 4, 8, 16 and 24 h after injection. Plasma was separated and stored at −20° C.
# [6] = 15-day SC 5 mg/kg, vs SNx/saline, 5 mg/kg
# [7] = single SC 5 mg/kg after LPS, 5 mg/kg
# [8] = single SC administration, LPS model
# T1 sequence (Q92847 whole entry): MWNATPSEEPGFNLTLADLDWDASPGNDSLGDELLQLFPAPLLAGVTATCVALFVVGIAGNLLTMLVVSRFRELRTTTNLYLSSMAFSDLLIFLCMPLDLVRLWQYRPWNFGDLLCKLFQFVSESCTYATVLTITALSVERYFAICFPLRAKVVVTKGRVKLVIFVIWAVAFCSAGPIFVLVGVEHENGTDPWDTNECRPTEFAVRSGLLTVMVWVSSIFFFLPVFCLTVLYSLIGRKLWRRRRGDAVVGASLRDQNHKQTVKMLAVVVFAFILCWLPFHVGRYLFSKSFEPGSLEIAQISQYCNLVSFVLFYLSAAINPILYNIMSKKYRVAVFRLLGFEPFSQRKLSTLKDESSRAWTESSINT
% of ghrelin binding (human GHS-R1a receptor),"half-life ([5]; male, C57BL/6, mouse, plasma)",SMILES,"levels of anti-inflammatory cytokine IL-10 (in words) ([1]; 15-day SC 5 mg/kg, vs SNx/saline)","body weight of SNx rats [1, 6]","levels of pro-inflammatory cytokines (in words) [1, 6]","cachectic state ([1]; repeated SC administration, SNx rats)",maximal effect at 5 mg/kg on food intake (fed C57BL/6 male mice),"ED50 (250 min after injection), effect on food intake (fed C57BL/6 male mice; fed mice)",cachectic state [2],body weight of AS rats ([2]; 2.5 mg/kg per day),levels of C-reactive protein ([3]; single SC 5 mg/kg after LPS),levels of pro-inflammatory cytokine IL-2 ([3]; single SC 5 mg/kg after LPS),"food intake ([3]; single SC 5 mg/kg after LPS, monitored 10 hours, 5 mg/kg)","expression of mRNA for orexigenic neuropeptides NPY and AgRP in hypothalamus [3, 7]","mRNA expression for markers of muscle degradation MuRF-1 and MAFbx [3, 7]","cachectic state [3, 8]","plasmatic levels of pro-inflammatory cytokines [3, 8]",GH levels in plasma [4],stability in vivo compared with ghrelin or Dpr^3ghrelin [5],"orexigenic effect (cumulative food intake), dose dependence (fed C57BL/6 male mice; SC 0.2, 1, 5 and 10 mg/kg, fed mice)"
54%,,CCCCCCCCCCCCCC(=O)NC[C@H](NC(=O)[C@H](CO)NC(=O)CNC)C(=O)N[C@@H](Cc1ccccc1)C(=O)N[C@@H](CC(C)C)C(=O)N[C@@H](CO)C(=O)N1CCC[C@H]1C(=O)N[C@@H](CCC(=O)O)C(=O)N[C@@H](Cc1c[nH]cn1)C(=O)N[C@@H](CCC(N)=O)C(=O)N[C@@H](CCCCN)C(=O)N[C@@H](C)C(=O)N[C@@H](CCC(N)=O)C(=O)N[C@@H](CCC(N)=O)C(=O)N[C@@H](CCCNC(=N)N)C(=O)N[C@@H](CCCCN)C(=O)N[C@@H](CCC(=O)O)C(=O)N[C@@H](CO)C(=O)N[C@@H](CCCCN)C(=O)N[C@@H](CCCCN)C(=O)N1CCC[C@H]1C(=O)N1CCC[C@H]1C(=O)N[C@@H](C)C(=O)N[C@@H](CCCCN)C(=O)N[C@@H](CC(C)C)C(=O)N[C@@H](CCC(N)=O)C(=O)N1CCC[C@H]1C(=O)N[C@@H](CCCNC(=N)N)C(=O)O [Analog 2],significantly increased,significantly increased body weight,significantly decreased levels of these cytokines; also recorded: reduced blood levels of pro-inflammatory cytokines,improved the cachectic state,202.7 % of Dpr^3ghr,3.80 mg/kg,improved the cachectic state,significantly increased body weight,,,,,,,,,,
7%,5 h,CCCCCCCCCCCCCC(=O)NC[C@H](NC(=O)[C@H](CO)NC(=O)CNC)C(=O)N[C@@H](Cc1ccc(Cl)c(Cl)c1)C(=O)N[C@@H](CC(C)C)C(=O)N[C@@H](CO)C(=O)N1CCC[C@H]1C(=O)N[C@@H](CCC(=O)O)C(=O)N[C@@H](Cc1c[nH]cn1)C(=O)N[C@@H](CCC(N)=O)C(=O)N[C@@H](CCCCN)C(=O)N[C@@H](C)C(=O)N[C@@H](CCC(N)=O)C(=O)N[C@@H](CCC(N)=O)C(=O)N[C@@H](CCCNC(=N)N)C(=O)N[C@@H](CCCCN)C(=O)N[C@@H](CCC(=O)O)C(=O)N[C@@H](CO)C(=O)N[C@@H](CCCCN)C(=O)N[C@@H](CCCCN)C(=O)N1CCC[C@H]1C(=O)N1CCC[C@H]1C(=O)N[C@@H](C)C(=O)N[C@@H](CCCCN)C(=O)N[C@@H](CC(C)C)C(=O)N[C@@H](CCC(N)=O)C(=O)N1CCC[C@H]1C(=O)N[C@@H](CCCNC(=N)N)C(=O)O [Analog 14],,,,,235.5 % of Dpr^3ghr,0.65 mg/kg,,,tended to normalize levels of C-reactive protein,normalized levels of pro-inflammatory cytokine IL-2,significant increase in food intake; also recorded: increased food intake,significantly increased expression of mRNA; also recorded: increased expression of orexigenic neuropeptides in the hypothalamus,tended to decrease mRNA expression; also recorded: tended to decrease expression of markers of muscle degradation,improved the cachectic state,reduced plasmatic levels of pro-inflammatory cytokines,did not alter the GH levels,significantly more stable than ghrelin or Dpr^3ghrelin,
57%,,CCCCCCCCCCCCCC(=O)NC[C@H](NC(=O)[C@H](CO)NC(=O)CNC)C(=O)N[C@@H](Cc1cccc2ccccc12)C(=O)N[C@@H](CC(C)C)C(=O)N[C@@H](CO)C(=O)N1CCC[C@H]1C(=O)N[C@@H](CCC(=O)O)C(=O)N[C@@H](Cc1c[nH]cn1)C(=O)N[C@@H](CCC(N)=O)C(=O)N[C@@H](CCCCN)C(=O)N[C@@H](C)C(=O)N[C@@H](CCC(N)=O)C(=O)N[C@@H](CCC(N)=O)C(=O)N[C@@H](CCCNC(=N)N)C(=O)N[C@@H](CCCCN)C(=O)N[C@@H](CCC(=O)O)C(=O)N[C@@H](CO)C(=O)N[C@@H](CCCCN)C(=O)N[C@@H](CCCCN)C(=O)N1CCC[C@H]1C(=O)N1CCC[C@H]1C(=O)N[C@@H](C)C(=O)N[C@@H](CCCCN)C(=O)N[C@@H](CC(C)C)C(=O)N[C@@H](CCC(N)=O)C(=O)N1CCC[C@H]1C(=O)N[C@@H](CCCNC(=N)N)C(=O)O [Analog 4] (H-[Sar]S[Dap](Myristoyl)[1Nal]LSPEHQKAQQRKESKKPPAKLQPR-OH; N-terminus and C-terminus assumed),,,,,212.8 % of Dpr^3ghr,6.02 mg/kg,,,,,,,,,,did not alter the GH levels,significantly more stable than ghrelin or Dpr^3ghrelin,dose-dependent orexigenic effect
